A value given as a limit tells only on which side of the number the result lay.

For the compound `CCOCc1nc2c(N)nc3ccccc3c2n1CCCC(N)=O`, the melting point (usually the temperature of the solid-liquid transition) lay in the range of 233 to 235 °C.

Turning to `Clc1cccc2c1Oc1ccccc1NC2`, the melting point fell in the range of 71 to 73 °C.

The compound `CC(=O)NC[C@H]1CN(c2ccc(C(=O)c3cnc4c(Br)cc(C)cn34)cc2)C(=O)O1` registered a melting point of 221 to 223 °C.

`Cc1cccc(C)c1N(C(C)CN1C(=O)c2ccccc2C1=O)S(C)(=O)=O` (configuration not stated) yielded a melting point of 188 to 190 °C.

The compound `C=CCc1ccc2oc(CC)c(C)c2c1O` yielded a melting point of 38 to 40 °C.

`C[Si](C)(C)/C=C/c1c(N)nc(-c2ccc(Cl)c(F)c2F)nc1C(=O)O` came in with a melting point of 155 to 157 °C.

In turn, `CC(C)n1c2ccccc2c2sccc(=O)c21` gave a melting point of 154 to 156 °C.

`C=CCNC(=O)NS(=O)(=O)c1ccccc1OC(Cl)=CCl`: the melting point was 187 to 188 °C.

On to `COC(=O)[C@H]1Cc2c([nH]c3ccccc23)[C@@H](c2ccc3c(c2)OCO3)N1`, for which the melting point fell in the range of 154 to 155 °C.

Compound `O=C1CCC(c2ccccc2)(c2ccccc2)C2CN(C(Cc3ccccc3)=NCc3ccccc3Cl)CC12` (configuration not stated) displayed a melting point of 192 °C.

Compound `CNc1cc(F)c(C=O)cc1F` yielded a melting point of 133 to 138 °C.

With `CC(Br)C(=O)OCN1C(=O)NC(c2ccccc2)(c2ccccc2)C1=O` (configuration not stated), the melting point lay in the range of 112 to 115 °C.

`Cn1c(=O)c2cnc(N)nc2n(-c2ccccc2)c1=O` registered a melting point above 300 °C.

Regarding `COc1ccc(NC(=O)c2c(Cl)cccc2Cl)c2nccc(NN)c12`, the melting point was above 250 °C.

Compound `O=C1c2cc(O)ccc2SCC1Cc1ccccc1` (configuration not stated) gave a melting point of 73 to 77 °C.

The compound `CNc1cc(NS(=O)(=O)c2ccc(N)cc2)nc(N(C)C)n1` yielded a melting point of 253 to 254 °C.

With `CCOC(=O)c1cc(=O)c2cc(OC)cc(Br)c2o1`, the melting point lay within 159 to 161 °C.

Compound `COC(=O)c1ccc(Oc2ccc(NC(=O)c3ccc([N+](=O)[O-])cc3Br)cc2NC(=O)c2ccc([N+](=O)[O-])cc2Br)cc1C(=O)OC` returned a melting point of 138 to 142 °C.

`COC(=O)CC(=O)NCc1ccccc1`: the melting point was 51 to 54 °C.

On to `O=C1Nc2ccccc2N2CCCC12` (configuration not stated), for which the melting point lay in the range of 169 to 172 °C.

For `O=C1CN(Cc2ccccc2)CC2=C1N=C1N=C(N3CCOCC3)NN1C2`, the melting point was in the range of 291 to 293 °C.

With `O=C(NCc1ccc(C=NNO)cc1)C1Cc2ccccc2N1S(=O)(=O)c1ccc(-c2cccc(C(F)(F)F)c2)cc1` (configuration not stated), the melting point was in the range of 110 to 115 °C.

With `NCC1CCC(CNc2ncc3ncnc(Nc4ccc(F)c(Cl)c4)c3n2)CC1` (configuration not stated), the melting point lay in the range of 155 to 160 °C.

With `CCOC(=O)c1ccc(OCCc2c(CCNS(=O)(=O)Cc3ccc(Cl)c(Cl)c3)n(C(c3ccccc3)c3ccccc3)c3ccc(Cl)cc23)cc1F`, the melting point lay within 83 to 85 °C.

Turning to `Cc1c(C(F)(F)F)cnn(-c2cc(OCC3CC3)c(Cl)cc2F)c1=O`, the melting point came out at 82.3 °C.

As for `CCOC(=O)Cc1c(C)n(Cc2cccc(OC)c2)c2ccc(OCc3csc(-c4ccccc4)n3)cc12`, the melting point was 85 to 86 °C.

With `CN1CCN(C(=O)C(=O)Nc2cc(C#N)ccc2O)CC1`, the melting point is 256 °C.

In the case of `O=C1N(Cc2ncccc2C(F)(F)F)c2ccccc2C12COc1ccc3nonc3c12` (configuration not stated), the melting point fell in the range of 212 to 215 °C.

In turn, `O=C1Cc2cc3c(cc2C(c2cccc([N+](=O)[O-])c2)=NN1)OCO3` displayed a melting point of 251 to 253 °C.

The compound `CN1CCNC(=O)C1c1ccc(N)cc1` (configuration not stated) yielded a melting point of 153 to 154 °C.

Consider `COC(=O)NC(=S)Nc1cc(C(=O)c2ccccc2)ccc1NCc1ccccc1`, for which the melting point lay in the range of 75 to 79 °C.

In turn, `CC(=O)Nc1ccc(-c2ccc(NC(C)=O)cc2I)c(I)c1` registered a melting point of 300 to 301 °C.

Turning to `ClC1c2ccccc2-c2ccccc21`, the melting point was in the range of 87 to 89 °C.

For the compound `CN(C)CCCOc1ccc(N(C(=O)c2ccc(Cl)cc2)c2ccccc2)cc1`, the melting point was 81.5 to 85.5 °C.

The compound `CCCc1nccn1N=Cc1cc(C(C)(C)C)c(O)c(C(C)(C)C)c1` came in with a melting point of 160 to 161 °C.

`O=C(O)c1ccc2nc(-c3ccc(C(=O)NC4CCCCC4)cc3)[nH]c2c1`: the melting point lay within 334 to 337 °C.

As for `O=C(O)C(Br)C(O)c1cccc([N+](=O)[O-])c1` (configuration not stated), the melting point fell in the range of 124 to 125 °C.

As to `OC(c1ccc2c(c1)COCO2)c1cn(C(c2ccccc2)(c2ccccc2)c2ccccc2)cn1` (configuration not stated), the melting point lay within 165 to 167 °C.

Consider `Cc1nc2c(s1)-c1nc(Nc3ccc(N4CCOCC4)cc3)ncc1CC2`, for which the melting point fell in the range of 236 to 237 °C.

As for `CCOC(=O)c1cnc2c(C(=O)Nc3cc4cccnc4cc3OC)csc2c1`, the melting point is 265 to 270 °C.

`COc1c(C(C)(C)C)cc(P(c2cc(C(C)(C)C)c(OC)c(C(C)(C)C)c2)c2ccccc2Br)cc1C(C)(C)C` showed a melting point of 142 to 143 °C.

`CC(C)(O)CNc1c([N+](=O)[O-])cnc2cc(Br)cnc12`: the melting point lay within 189 to 190 °C.

Compound `CS(=O)(=O)c1ccc(-c2cc(/C=C\CCO[N+](=O)[O-])nn2C2CCCCC2)cc1` gave a melting point of 129 to 130 °C.

Take `O=Cc1cccnc1Oc1ccc(F)cc1`: the melting point lay within 61 to 62 °C.

In turn, `c1ccc(COc2ccc(Nc3ccccn3)cc2)cc1` yielded a melting point of 110 to 112 °C.

Consider `CC=CC(c1ccc2c(c1)nnn2C)n1ccnc1` (configuration not stated), for which the melting point was found to be 104 °C.

Consider `Cn1ncc(/C=C/C(=O)O)c1-c1cccnc1`, for which the melting point fell in the range of 236 to 237 °C.

The compound `FC(F)(F)c1cccc(CCc2nnc(-c3ccc4ncoc4c3)o2)c1` showed a melting point of 117 to 118 °C.

`O=C(CCl)N1CC(c2ccc(F)cc2)Sc2ccccc21` (configuration not stated) came in with a melting point of 122 to 124 °C.

`C=CCn1c(=O)ccc2cc(F)c(-n3c(=O)cc(C(F)(F)F)n(C)c3=O)cc21` registered a melting point of 178 to 179 °C.

Take `c1ccc(CN2CCc3[nH]c4ccc(Oc5ccccc5)cc4c3C2)cc1`: the melting point was 102 °C.

Consider `O=C(c1cccc(F)c1)N1CCc2cc(S(=O)(=O)N3CC(c4ccccc4)NC3=O)ccc21` (configuration not stated), for which the melting point was 202 °C.

For the compound `Cc1ccc([N+](=O)[O-])cc1C(=O)N(C)C`, the melting point is 98 to 99 °C.

`CCOC(=O)C1=C(N)N=C(OCC)C(C(=O)OCC)C1c1ccco1` (configuration not stated) came in with a melting point of 110 °C.

Compound `OCc1cn(-c2ccc(F)c(C(F)F)c2)cn1` yielded a melting point of 133 to 134 °C.

On to `COc1ccc2c(c1)CC[C@@H]1[C@@H]2CC[C@@]2(C)[C@H]1CCC2(OC)OC`, for which the melting point was 104 to 116 °C.

Compound `CCOC(=O)C1=C(C)NC(C)=C(C(=O)OCCC#N)C1c1ccccc1/C=C/C(=O)OC(C)(C)C` (configuration not stated) yielded a melting point of 168 to 169 °C.

`CC(C)(C)OC(=O)NC(Cc1ccc(OC(=O)OCc2ccccc2)cc1)C(=O)O` (configuration not stated) showed a melting point of 84 to 85 °C.

`N=C1CCCN1Cc1ccc(Cl)nc1` returned a melting point of 166 °C.

On to `CCCN1NC(c2ccc(OC)cc2)C2=C1C(=Cc1ccc(OC)cc1)CSC2` (configuration not stated), for which the melting point was in the range of 132 to 134 °C.

`O=C(Nc1ccccc1)N1CCc2ccccc2C1` yielded a melting point of 145 to 146 °C.

With `CN1CCC(=C2c3ccccc3C=Cc3ccc(C(=O)O)cc32)CC1`, the melting point is 300 to 305 °C.

On to `O=c1ncc(Cl)cn1C(SCc1ccccc1)c1ccccc1` (configuration not stated), for which the melting point was determined as 118 °C.

Turning to `CC1(C)Oc2ccc(C#N)cc2[C@@H](n2ncccc2=O)[C@@H]1O` (relative stereo), the melting point was in the range of 211 to 215 °C.

Compound `CC(=O)N1CCC(=O)C(C(c2ccc(Cl)cc2)c2ccc(Cl)cc2)C1` (configuration not stated) showed a melting point of 169 to 171 °C.

With `O=[N+]([O-])c1ccc(Oc2ccccc2)nc1`, the melting point fell in the range of 84 to 86 °C.

In turn, `CCN1C(=O)C(C)(C)C(=O)N(C)c2cc(CN(CCn3ccc4oc(C)cc4c3=O)Cc3cccnc3COC)ccc21` showed a melting point of 127 to 129 °C.

For the compound `O=C(Oc1c(Br)c(Br)c(Br)c(Br)c1Br)c1ccccc1CCl`, the melting point was 201 to 205 °C.

As to `CC(C)(C)c1cc(N=C2CCCc3cc4c(nc32)C(=Nc2cc(C(C)(C)C)cc(C(C)(C)C)c2)CCC4)cc(C(C)(C)C)c1`, the melting point lay within 129 to 132 °C.

`OC[C@@H]1CC[C@H]2CN(c3ncccn3)CCN2C1` (relative stereo): the melting point is 135 to 136 °C.

For the compound `Cc1cc(=O)[nH]c2cc(OCCCN3CCN(c4cccc(Cl)c4)CC3)ccc12`, the melting point is 212 to 214 °C.

The compound `N#Cc1c(N)n[nH]c1-c1ccc(Oc2ccccc2)cc1` yielded a melting point of 187 to 188 °C.

On to `Cc1nc2ncnn2c(N[C@@H](C)c2ccc(F)cc2)c1Cl`, for which the melting point was in the range of 103 to 104 °C.

Take `CCC(c1oc2ccc(F)cc2c(=O)c1-c1ccccc1)n1cnc2c(N)ncnc21` (configuration not stated): the melting point was in the range of 266 to 272 °C.

In turn, `CC(C)Oc1ccc(-n2c(CC(=O)O)c(C(=O)O)c3cc(Oc4ncccc4C(=O)O)ccc32)cc1` had a melting point of 212 to 214 °C.

For the compound `CCOC(=O)c1cn2c(n1)c(OCC)nc1cc(Br)c(Br)cc12`, the melting point was in the range of 247 to 249 °C.

The compound `CC(=O)C1=C(C)N=C(c2ccccc2)NC1c1cccc([N+](=O)[O-])c1` (configuration not stated) yielded a melting point of 154 to 155 °C.

Compound `CCCOc1ccc2c(c1)C(=O)c1cccc(OC)c1-2` yielded a melting point of 96 to 97 °C.

As to `COc1ccc(NC(=O)C(C)(C)CCCOc2cc(C)ccc2C)cc1OC`, the melting point lay within 110 to 111 °C.

The compound `COc1cccc2sc(-c3ccc(C(=O)O)cc3)nc12` gave a melting point of 289 to 291 °C.

For `Cn1c(=O)on(-c2cc(F)ccc2F)c1=O`, the melting point fell in the range of 66 to 68 °C.

In turn, `O=C(O)Cc1ccc(NC(=O)C(CCc2ccccc2)NS(=O)(=O)c2ccc(Cl)cc2)cc1` (racemic) returned a melting point of 163 to 167 °C.

Compound `O=C(O)c1csc2c(=O)cc(-c3ccccc3)oc12` had a melting point of 282 to 283 °C.

Turning to `CCC(=O)Nc1cccc(O)c1`, the melting point lay within 181 to 182 °C.

Compound `CCN(C(=O)OC(C)(C)C)C1CC=C(c2c[nH]c3ccc(NC(=N)c4cccs4)cc23)CC1` (configuration not stated) registered a melting point of 124 to 126 °C.

In the case of `CSCc1cnc2c(NC(=O)c3c(Cl)cccc3Cl)cccc2c1Cl`, the melting point fell in the range of 173 to 175 °C.

As for `Cc1ccc(-c2ccccc2)cc1Cn1c(C2CC2)nn(C)c1=O`, the melting point stood at 102 °C.

(Values after a melting point compilation (Tetko et al.; mined from patent text by program, amines drawn as free bases though some values may be those of a salt).)
